# Data: patent US10968172B2, “USP30 inhibitors” (Mitobridge, Inc., priority 2017, dated 2021)
# Target: USP30 (Homo sapiens (Human), UniProt Q70CQ3)
# Experiment: In vitro biochemical assay for USP30 enzyme (Ubiquitin-Rhodamine110 cleavage, fluorescence)
# Conditions: 20 nM USP30, 15 min pre-incubation, 100 nM Ub rhodamine substrate, 2 hrs at room temperature
# Protocol: In vitro biochemical assay for USP30 enzyme
# The in vitro assay for USP30 evaluates the ability of a test compound to inhibit the activity of the enzyme to cleave ubiquitin from a substrate. Ubiquitin-rhodamine 110 is a quenched, fluorescent substrate for USP30. Cleavage of the amide bond between the C-terminal glycine of ubiquitin and rhodamine results in an increase in rhodamine fluorescence at 535 nm (Exc. 485 nm).
# Incubation of the substrate in the presence or absence of USP30 was compared to confirm the deubiquitylating activity of USP30. The USP30 enzyme assay was performed by pre-incubating 20 nM of USP30 with varying concentration of a test compound in the assay buffer [PBS (pH 7.4), 1 mM DTT, 0.01% Tween 20, 0.01% BSA, DMSO final concentration is 1%] for 15 mins at room temperature, following which 100 nM of substrate Ub rhodamine was added and incubated at room temperature for 2 hrs and the plate was read for fluorescence intensity at Ex. 485 nm/535 nm in VICTOR X5 plate reader. The percent inhibition of activity of the enzyme is calculated by comparing counts in the presence and absence of compounds.
# Test compounds were screened at various concentrations (10-12 tested concentrations) and dose response curves were generated was generated using GraphPad Prism software Version 7 (San Diego, Calif., USA) with non-linear regression curve fit for sigmoidal dose response (variable slope).
# Chain of USP30 (Q70CQ3 whole entry): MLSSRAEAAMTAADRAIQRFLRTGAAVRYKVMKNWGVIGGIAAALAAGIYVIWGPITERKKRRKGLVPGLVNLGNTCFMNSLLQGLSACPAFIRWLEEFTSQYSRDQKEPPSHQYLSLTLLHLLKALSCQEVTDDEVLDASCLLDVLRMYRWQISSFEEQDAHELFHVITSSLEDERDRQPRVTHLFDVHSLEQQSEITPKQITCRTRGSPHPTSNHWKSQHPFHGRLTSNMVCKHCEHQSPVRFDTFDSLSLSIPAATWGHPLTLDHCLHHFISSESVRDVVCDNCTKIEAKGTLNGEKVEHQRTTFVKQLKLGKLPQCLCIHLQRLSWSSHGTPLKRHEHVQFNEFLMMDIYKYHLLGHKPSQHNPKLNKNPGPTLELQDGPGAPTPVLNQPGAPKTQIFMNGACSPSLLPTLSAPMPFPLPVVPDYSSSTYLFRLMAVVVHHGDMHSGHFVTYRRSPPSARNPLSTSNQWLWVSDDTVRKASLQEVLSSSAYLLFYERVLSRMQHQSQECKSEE
row,SMILES,IC50 [µM]
1,CC(C)(C)NS(=O)(=O)c1ccc(NC(=O)[C@H](Cc2ccccc2)NC(=O)c2ccc(F)cc2)cc1 [Compound 10e],0.017
2,"CC(C)(C)NS(=O)(=O)c1ccc(NC(=O)[C@H](Cc2ccccc2)NC(=O)c2ccc(C(=O)O)cc2)cc1 [Compound 10f, (S)-4-((1-((4-(N-(tert-butyl)sulfamoyl)phenyl)amino)-1-oxo-3-phenylpropan-2-yl)carbamoyl)benzoic acid]",> 10
3,"CC(C)(C)NS(=O)(=O)c1ccc(NC(=O)[C@H](Cc2ccccc2)NC(=O)c2ccccn2)cc1 [Compound 10h, (S)-N-(1-((4-(N-(tert-butyl)sulfamoyl)phenyl)amino)-1-oxo-3-phenylpropan-2-yl)picolinamide]",0.25
4,"CC(C)(C)NS(=O)(=O)c1ccc(NC(=O)[C@H](CC2CCCCC2)NC(=O)c2ccc(C(F)(F)F)cc2)cc1 [Compound 14d, (S)-N-(1-((4-(N-(tert-butyl)sulfamoyl)phenyl)amino)-3-cyclohexyl-1-oxopropan-2-yl)-4-(trifluoromethyl)benzamide]",> 10
5,"CC(C)(C)NS(=O)(=O)c1ccc(NC(=O)[C@H](CC2CCCCC2)NC(=O)c2ccccc2F)cc1 [Compound 14f, (S)-N-(1-((4-(N-(tert-butyl)sulfamoyl)phenyl)amino)-3-cyclohexyl-1-oxopropan-2-yl)-2-fluorobenzamide]",0.461
6,"COc1ccc(C[C@H](NC(=O)c2cccnc2)C(=O)Nc2ccc(S(=O)(=O)NC(C)(C)C)cc2)cc1 [Compound 19aa, (S)-N-(1-((4-(N-(tert-butyl)sulfamoyl)phenyl)amino)-3-(4-methoxyphenyl)-1-oxopropan-2-yl)nicotinamide]",0.208
7,"COc1ccc(C[C@H](NC(=O)c2ccncc2)C(=O)Nc2ccc(S(=O)(=O)NC(C)(C)C)cc2)cc1 [Compound 19ab, (S)-N-(1-((4-(N-(tert-butyl)sulfamoyl)phenyl)amino)-3-(4-methoxyphenyl)-1-oxopropan-2-yl)isonicotinamide]",2.4
8,"CC(C)(C)NS(=O)(=O)c1ccc(NC(=O)[C@H](CC2CCOCC2)NC(=O)C2CCCCC2)cc1 [Compound 19ac, (S)-N-(1-((4-(N-(tert-butyl)sulfamoyl)phenyl)amino)-1-oxo-3-(tetrahydro-2H-pyran-4-yl)propan-2-yl)cyclohexanecarboxamide]",0.071
9,"CC(C)(C)NS(=O)(=O)c1ccc(NC(=O)[C@H](Cc2cccc(C#N)c2)NC(=O)C2CCCCC2)cc1 [Compound 19ad, (S)-N-(1-((4-(N-(tert-butyl)sulfamoyl)phenyl)amino)-3-(3-cyanophenyl)-1-oxopropan-2-yl)cyclohexanecarboxamide]",0.041
10,"CC(C)(C)NS(=O)(=O)c1ccc(NC(=O)[C@H](Cc2ccc(OC(F)(F)F)cc2)NC(=O)c2ccc(F)cc2)cc1 [Compound 19ae, (S)-N-(1-((4-(N-(tert-butyl)sulfamoyl)phenyl)amino)-1-oxo-3-(4-(trifluoromethoxy)phenyl)propan-2-yl)-4-fluorobenzamide]",3.6
11,"CC(C)(C)NS(=O)(=O)c1ccc(NC(=O)[C@H](Cc2ccc(F)cc2)NC(=O)c2ccccc2)cc1 [Compound 19b, (S)-N-(1-((4-(N-(tert-butyl)sulfamoyl)phenyl)amino)-3-(4-fluorophenyl)-1-oxopropan-2-yl)benzamide]",0.133
12,"COc1ccc(C[C@H](NC(=O)c2ccc(F)cc2)C(=O)Nc2ccc(S(=O)(=O)NC(C)(C)C)cc2)cc1 [Compound 19f, (S)-N-(1-((4-(N-(tert-butyl)sulfamoyl)phenyl)amino)-3-(4-methoxyphenyl)-1-oxopropan-2-yl)-4-fluorobenzamide]",0.022
13,"C[C@@H](O)[C@H](NC(=O)C1CCCCC1)C(=O)Nc1ccc(S(=O)(=O)NC(C)(C)C)cc1 [Compound 19i, N-((2S,3R)-1-((4-(N-(tert-butyl)sulfamoyl)phenyl)amino)-3-hydroxy-1-oxobutan-2-yl)cyclohexanecarboxamide]",> 10

# The remaining lines, values ahead:
row,IC50 [µM],SMILES
1,> 10,"COC(=O)c1ccc(C(=O)N[C@@H](Cc2ccccc2)C(=O)Nc2ccc(S(=O)(=O)NC(C)(C)C)cc2)cc1 [Compound 10g, methyl (S)-4-((1-((4-(N-(tert-butyl)sulfamoyl)phenyl)amino)-1-oxo-3-phenylpropan-2-yl)carbamoyl)benzoate]"
2,> 10,"CC(C)(C)NS(=O)(=O)c1ccc(NC(=O)[C@H](Cc2ccccc2)NC(=O)[C@@H]2CCCN2)cc1 [Compound 10i, (S)-N-((S)-1-((4-(N-(tert-butyl)sulfamoyl)phenyl)amino)-1-oxo-3-phenylpropan-2-yl)pyrrolidine-2-carboxamide]"
3,0.148,"CC(C)(C)NS(=O)(=O)c1ccc(NC(=O)[C@H](Cc2ccccc2)NC(=O)c2cccnn2)cc1 [Compound 10j, (S)-N-(1-((4-(N-(tert-butyl)sulfamoyl)phenyl)amino)-1-oxo-3-phenylpropan-2-yl)pyridazine-3-carboxamide]"
4,0.225,"CC(C)(C)NS(=O)(=O)c1ccc(NC(=O)[C@H](CC2CCCCC2)NC(=O)c2ccccc2)cc1 [Compound 14a, (S)-N-(1-((4-(N-(tert-butyl)sulfamoyl)phenyl)amino)-3-cyclohexyl-1-oxopropan-2-yl)benzamide]"
5,0.083,"CC(C)(C)NS(=O)(=O)c1ccc(NC(=O)[C@H](CC2CCCCC2)NC(=O)C2CCCCC2)cc1 [Compound 14b, (S)-N-(1-((4-(N-(tert-butyl)sulfamoyl)phenyl)amino)-3-cyclohexyl-1-oxopropan-2-yl)cyclohexanecarboxamide]"
6,0.023,"CC(C)(C)NS(=O)(=O)c1ccc(NC(=O)[C@H](CC2CCCCC2)NC(=O)c2ccc(F)cc2)cc1 [Compound 14c, (S)-N-(1-((4-(N-(tert-butyl)sulfamoyl)phenyl)amino)-3-cyclohexyl-1-oxopropan-2-yl)-4-fluorobenzamide]"
7,0.12,"CC(C)(C)NS(=O)(=O)c1ccc(NC(=O)[C@H](CC2CCCCC2)NC(=O)C2CCCC2)cc1 [Compound 14e, (S)-N-(1-((4-(N-(tert-butyl)sulfamoyl)phenyl)amino)-3-cyclohexyl-1-oxopropan-2-yl)cyclopentanecarboxamide]"
8,0.057,"CC(C)(C)NS(=O)(=O)c1ccc(NC(=O)[C@H](CC2CCCCC2)NC(=O)c2cccc(F)c2)cc1 [Compound 14g, (S)-N-(1-((4-(N-(tert-butyl)sulfamoyl)phenyl)amino)-3-cyclohexyl-1-oxopropan-2-yl)-3-fluorobenzamide]"
9,0.031,"CC(C)(C)NS(=O)(=O)c1ccc(NC(=O)[C@H](CC2CCCCC2)NC(=O)c2ccc(F)c(F)c2)cc1 [Compound 14h, (S)-N-(1-((4-(N-(tert-butyl)sulfamoyl)phenyl)amino)-3-cyclohexyl-1-oxopropan-2-yl)-3,4-difluorobenzamide]"
10,> 10,"CC(C)(C)NS(=O)(=O)c1ccc(NC(=O)[C@H](CC2CCCCC2)NC(=O)c2cccc(C#N)c2)cc1 [Compound 14i, (S)-N-(1-((4-(N-(tert-butyl)sulfamoyl)phenyl)amino)-3-cyclohexyl-1-oxopropan-2-yl)-3-cyanobenzamide]"
11,0.123,"CC(C)(C)NS(=O)(=O)c1ccc(NC(=O)[C@H](CC2CCCCC2)NC(=O)c2ccccn2)cc1 [Compound 14j, (S)-N-(1-((4-(N-(tert-butyl)sulfamoyl)phenyl)amino)-3-cyclohexyl-1-oxopropan-2-yl)picolinamide]"
12,0.028,"CC(C)(C)NS(=O)(=O)c1ccc(NC(=O)[C@H](Cc2cccs2)NC(=O)C2CCCCC2)cc1 [Compound 19a, (S)-N-(1-((4-(N-(tert-butyl)sulfamoyl)phenyl)amino)-1-oxo-3-(thiophen-2-yl)propan-2-yl)cyclohexanecarboxamide]"
13,0.81,"CC(C)(C)NS(=O)(=O)c1ccc(NC(=O)[C@H](CC2CC2)NC(=O)C2CCCCC2)cc1 [Compound 19c, (S)-N-(1-((4-(N-(tert-butyl)sulfamoyl)phenyl)amino)-3-cyclopropyl-1-oxopropan-2-yl)cyclohexanecarboxamide]"
14,> 10,"CC(C)(C)NS(=O)(=O)c1ccc(NC(=O)[C@H](Cc2cccc(Cl)c2)NC(=O)C2CCCCC2)cc1 [Compound 19e, (S)-N-(1-((4-(N-(tert-butyl)sulfamoyl)phenyl)amino)-3-(3-chlorophenyl)-1-oxopropan-2-yl)cyclohexanecarboxamide]"
15,0.019,"CC(C)(C)NS(=O)(=O)c1ccc(NC(=O)[C@H](Cc2cccs2)NC(=O)c2ccc(F)cc2)cc1 [Compound 19g, (S)-N-(1-((4-(N-(tert-butyl)sulfamoyl)phenyl)amino)-1-oxo-3-(thiophen-2-yl)propan-2-yl)-4-fluorobenzamide]"
16,0.179,"CC(C)NS(=O)(=O)c1ccc(NC(=O)[C@H](Cc2ccccc2)NC(=O)C2CCCCC2)cc1 [Compound 19h, (S)-N-(1-((4-(N-isopropylsulfamoyl)phenyl)amino)-1-oxo-3-phenylpropan-2-yl)cyclohexanecarboxamide]"
17,> 10,"CC(C)(C)NS(=O)(=O)c1ccc(NC(=O)[C@H](CO)NC(=O)C2CCCCC2)cc1 [Compound 19j, (S)-N-(1-((4-(N-(tert-butyl)sulfamoyl)phenyl)amino)-3-hydroxy-1-oxopropan-2-yl)cyclohexanecarboxamide]"
